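Cells were grown in 96-well plates and exposed to each compound for 48 hours at five concentrations; endpoints were interpolated linearly between bracketing concentrations, or set to the highest concentration if not reached. GI50 marks 50% less growth. The concentration for full growth arrest is given as TGI.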
Key:
Assay in all cases: inhibition of tumour cell growth, NCI panel, 48 h
SK-MEL-28 melanoma = tested on: SK-MEL-28 melanoma
HOP-92 NSCLC = tested on: HOP-92 NSCLC
MDA-MB-231 breast = tested on: MDA-MB-231 breast
SN12C renal = tested on: SN12C renal
MOLT-4 leukemia = tested on: MOLT-4 leukemia
HL-60(TB) leukemia = tested on: HL-60(TB) leukemia
CCRF-CEM leukemia = tested on: CCRF-CEM leukemia
SF-539 CNS = tested on: SF-539 CNS
786-0 renal = tested on: 786-0 renal
HCT-15 colon = tested on: HCT-15 colon
OVCAR-5 ovarian = tested on: OVCAR-5 ovarian
SK-MEL-5 melanoma = tested on: SK-MEL-5 melanoma
DU-145 prostate = tested on: DU-145 prostate
OVCAR-4 ovarian = tested on: OVCAR-4 ovarian
CAKI-1 renal = tested on: CAKI-1 renal
LOX IMVI melanoma = tested on: LOX IMVI melanoma
M14 melanoma = tested on: M14 melanoma
A498 renal = tested on: A498 renal
SF-295 CNS = tested on: SF-295 CNS
A549 NSCLC = tested on: A549 NSCLC
HS 578T breast = tested on: HS 578T breast
MCF7 breast = tested on: MCF7 breast
UACC-257 melanoma = tested on: UACC-257 melanoma
HCC-2998 colon = tested on: HCC-2998 colon
SF-268 CNS = tested on: SF-268 CNS
HT29 colon = tested on: HT29 colon
EKVX NSCLC = tested on: EKVX NSCLC
HCT-116 colon = tested on: HCT-116 colon
OVCAR-8 ovarian = tested on: OVCAR-8 ovarian

Question: Which GI50 (SK-MEL-28 melanoma) does the source give for `O=C(NC1CCC(Br)CC1)C1CCCC(S(=O)(=O)NC2CCCCC2)C1` (stereo not drawn) here?
Answer: The GI50 was 9.22 µM.

Question: And the TGI (SK-MEL-28 melanoma)?
Answer: The TGI was 36.8 µM.

Question: What about the GI50 (HOP-92 NSCLC) of the same compound?
Answer: The GI50 was 4.7 µM.

Question: What about the TGI (HOP-92 NSCLC) of the same compound?
Answer: The TGI was 23 µM.

Question: What about the GI50 (MDA-MB-231 breast) of the same compound?
Answer: The GI50 was 13.5 µM.

Question: And the TGI (MDA-MB-231 breast)?
Answer: The TGI was 55.8 µM.

Question: What about the GI50 (SN12C renal) of the same compound?
Answer: Its GI50 is 9.29 µM.

Question: And the TGI (SN12C renal)?
Answer: The TGI was 39.8 µM.

Question: And the GI50 (MOLT-4 leukemia)?
Answer: Its GI50 is 8.91 µM.

Question: What about the TGI (MOLT-4 leukemia) of the same compound?
Answer: The TGI was 79.3 µM.

Question: And the GI50 (HL-60(TB) leukemia)?
Answer: Its GI50 is 8.6 µM.

Question: And the TGI (HL-60(TB) leukemia)?
Answer: Its TGI is 82.2 µM.

Question: And the GI50 (CCRF-CEM leukemia)?
Answer: The GI50 was 0.233 µM.

Question: And the TGI (CCRF-CEM leukemia)?
Answer: The TGI was 26.3 µM.

Question: What about the GI50 (SF-539 CNS) of the same compound?
Answer: The GI50 was 13.5 µM.

Question: And the TGI (SF-539 CNS)?
Answer: Its TGI is 46.3 µM.

Question: And the GI50 (786-0 renal)?
Answer: Its GI50 is 19.3 µM.

Question: What about the TGI (786-0 renal) of the same compound?
Answer: Its TGI is 55 µM.

Question: What about the GI50 (HCT-15 colon) of the same compound?
Answer: Its GI50 is 11.5 µM.

Question: And the TGI (HCT-15 colon)?
Answer: Its TGI is 46.9 µM.

Question: What about the GI50 (OVCAR-5 ovarian) of the same compound?
Answer: The GI50 was 14.2 µM.

Question: What about the TGI (OVCAR-5 ovarian) of the same compound?
Answer: The TGI was 48.8 µM.

Question: And the GI50 (SK-MEL-5 melanoma)?
Answer: Its GI50 is 4.96 µM.

Question: And the TGI (SK-MEL-5 melanoma)?
Answer: The TGI was 11.6 µM.

Question: And the GI50 (DU-145 prostate)?
Answer: The GI50 was 16.1 µM.

Question: And the TGI (DU-145 prostate)?
Answer: Its TGI is 47.7 µM.

Question: And the GI50 (OVCAR-4 ovarian)?
Answer: Its GI50 is 8.19 µM.

Question: What about the TGI (OVCAR-4 ovarian) of the same compound?
Answer: Its TGI is 44.1 µM.

Question: And the GI50 (CAKI-1 renal)?
Answer: Its GI50 is 10.2 µM.

Question: What about the TGI (CAKI-1 renal) of the same compound?
Answer: Its TGI is 42.5 µM.

Question: What about the GI50 (LOX IMVI melanoma) of the same compound?
Answer: The GI50 was 10.7 µM.

Question: And the TGI (LOX IMVI melanoma)?
Answer: The TGI was 40.4 µM.

Question: What about the GI50 (M14 melanoma) of the same compound?
Answer: The GI50 was 9.42 µM.

Question: What about the TGI (M14 melanoma) of the same compound?
Answer: The TGI was 39.6 µM.

Question: What about the GI50 (A498 renal) of the same compound?
Answer: Its GI50 is 3.7 µM.

Question: And the TGI (A498 renal)?
Answer: The TGI was 21.7 µM.

Question: What about the GI50 (SF-295 CNS) of the same compound?
Answer: Its GI50 is 8.04 µM.

Question: What about the TGI (SF-295 CNS) of the same compound?
Answer: The TGI was 28.4 µM.

Question: And the GI50 (A549 NSCLC)?
Answer: Its GI50 is 9.81 µM.

Question: And the TGI (A549 NSCLC)?
Answer: Its TGI is 44.8 µM.

Question: And the GI50 (HS 578T breast)?
Answer: Its GI50 is 16.8 µM.

Question: And the TGI (HS 578T breast)?
Answer: The TGI was 87.2 µM.

Question: And the GI50 (MCF7 breast)?
Answer: The GI50 was 9.31 µM.

Question: What about the TGI (MCF7 breast) of the same compound?
Answer: The TGI was 63.8 µM.

Question: And the GI50 (UACC-257 melanoma)?
Answer: Its GI50 is 9.32 µM.

Question: And the TGI (UACC-257 melanoma)?
Answer: The TGI was 38.4 µM.

Question: What about the GI50 (HCC-2998 colon) of the same compound?
Answer: Its GI50 is 13 µM.

Question: What about the TGI (HCC-2998 colon) of the same compound?
Answer: The TGI was 47.3 µM.

Question: What about the GI50 (SF-268 CNS) of the same compound?
Answer: Its GI50 is 12.6 µM.

Question: What about the TGI (SF-268 CNS) of the same compound?
Answer: The TGI was 56 µM.

Question: And the GI50 (HT29 colon)?
Answer: Its GI50 is 17.7 µM.

Question: What about the TGI (HT29 colon) of the same compound?
Answer: Its TGI is 55 µM.

Question: And the GI50 (EKVX NSCLC)?
Answer: The GI50 was 7.81 µM.

Question: And the TGI (EKVX NSCLC)?
Answer: The TGI was 32.9 µM.

Question: And the GI50 (HCT-116 colon)?
Answer: Its GI50 is 9.15 µM.

Question: What about the TGI (HCT-116 colon) of the same compound?
Answer: The TGI was 38 µM.

Question: What about the GI50 (OVCAR-8 ovarian) of the same compound?
Answer: The GI50 was 12.8 µM.

Question: And the TGI (OVCAR-8 ovarian)?
Answer: Its TGI is 59 µM.

— PubChem BioAssay (NCI)
